Laboratory results as given in patent US4329453A, “Cephalosporin antibiotic” (Glaxo Group Limited, priority 1979, dated 1982).
Structures can show the parent of a compound that is named as a salt.

Assays:
stability = assay type: physicochemical
Description: These properties render the hydrate of value in pharmaceutical use.
The salts for use in the preparation of the new pentahydrate according to the invention may be prepared by a process disclosed in the above-mentioned U.K. Patent Specification No. 2025398, i.e. by a process corresponding to the method above mentioned.

Serratia = test: activity against Serratia; assay type: cell-based
indole-positive Proteus = test: activity against indole-positive Proteus; assay type: cell-based
[1] = distribution and levels in small rodents after subcutaneous injection; assay type: in vivo
Providence = test: activity against Providence; assay type: cell-based
Pseudomonas aeruginosa = test: experimental infections in mice with Pseudomonas aeruginosa; assay type: in vivo
gram-negative bacteria = test: experimental infections in mice with gram-negative bacteria; assay type: in vivo
gram-negative organisms = details: as described in U.K. Patent Specification No. 2025398; cited from earlier work
bacteria [2] = details: as described in U.K. Patent Specification No. 2025398; cited from earlier work
early clinical results = assay type: in vivo, human
[3] = system: β-lactamase-producing gram-negative strains; details: as described in U.K. Patent Specification No. 2025398; cited from earlier work
Pseudomonas organisms = test: activity against Pseudomonas organisms; assay type: cell-based
[4] = pharmacokinetic studies in human volunteers
[5] = acute toxicity tests in mice; details: mouse, in vivo
bacteria [6] = test: antibiotic activity in vitro (broad spectrum); assay type: cell-based
[7] = especially at elevated temperatures, U.K. Patent Specification No. 2025398; cited from earlier work
nephrotoxicity in rats = assay type: in vivo; details: dosages of 2.0 g/kg
pathogenic bacteria = test: antibiotic properties of the crystalline pentahydrate; assay type: cell-based; details: compared with compound (I)

In the case of `CC(C)(O/N=C(\C(=O)N[C@@H]1C(=O)N2C(C(=O)[O-])=C(C[n+]3ccccc3)CS[C@H]12)c1csc(N)n1)C(=O)O` [bishydrochloride, (6R,7R)-7-[(Z)-2-(2-Aminothizol-4-yl)-2-(2-carboxyprop-2-oxyimino)acetamidol]-3-(1-pyridiniummethyl)ceph-3-em-4-carboxylate bishydrochloride], the “stability of crystalline bishydrochloride” value (stability; crystallised from acetone and formic acid) is reported as “highly stable”.
For `CC(C)(O/N=C(\C(=O)N[C@@H]1C(=O)N2C(C(=O)[O-])=C(C[n+]3ccccc3)CS[C@H]12)c1csc(N)n1)C(=O)O` [ceftazidime, (6R,7R)-7-[(Z)-2-(2-aminothiazol-4-yl)-2-(2-carboxyprop-2-oxyimino)acetamido]-3-(1-pyridiniummethyl)ceph-3-em-4-carboxylate], the “activity against Serratia” value (Serratia) was “excellent activity”, the “activity against indole-positive Proteus” value (indole-positive Proteus) was “excellent activity” and the “distribution in the bodies of small rodents” value [1] was “well distributed”. The “levels after subcutaneous injection” value ([1]; subcutaneous injection) was “useful therapeutic levels”, the “activity against Providence” value (Providence) was “excellent activity” and the “protection against strains of Pseudomonas aeruginosa” value (Pseudomonas aeruginosa) was “excellent protection”. For the same compound, the “protection compared with treatment with an aminoglycoside such as amikacin” value (Pseudomonas aeruginosa; versus amikacin) was “comparable”, the “treatment of experimental infections with gram-negative bacteria” value (gram-negative bacteria) was “successfully treated” and the “activity against gram-negative organisms” value (gram-negative organisms) was “unusually high activity”. The “broad spectrum antibiotic activity” value (bacteria [2]) was “broad spectrum antibiotic activity”, the “antibiotic properties in the clinic” value (early clinical results) was “reproduces in the clinic the excellent antibiotic properties” and the “activity against β-lactamase-producing gram-negative strains” value [3] was “unusually high activity”. The “activity against Pseudomonas organisms” value (Pseudomonas organisms) was “excellent activity”, the pharmacokinetic properties [4] was “good pharmacokinetic properties” and the serum half-life [4] was “long”. The “serum levels after injection” value ([4]; injection) was “high and long lasting serum levels”, the LD50 [5] was over 6000 mg/kg and the bactericidal action (bacteria [6]; at concentrations close to the minimum inhibitory concentration) was “rapidly bactericidal”. The “effect of human serum on antibacterial properties” value (bacteria [6]; human serum) was “not impaired by human serum”, the “effect of increased inocula” value (bacteria [6]; increased inocula) was “low” and the “stability of amorphous solid” value [7] was “not particularly satisfactory”. The nephrotoxicity (nephrotoxicity in rats) was “No nephrotoxicity has been observed”.
For `CC(C)(O/N=C(\C(=O)N[C@@H]1C(=O)N2C(C(=O)[O-])=C(C[n+]3ccccc3)CS[C@H]12)c1csc(N)n1)C(=O)O` [crystalline pentahydrate, (6R, 7R)-7-[(Z)-2-(2-aminothiazol-4-yl)-2-(2-carboxyprop-2-oxyimino)acetamido]-3-(1-pyridiniummethyl)ceph-3-em-4-carboxylate pentahydrate], the antibiotic properties (pathogenic bacteria) was “exhibits the antibiotic properties of the above-mentioned compound (I)”, the “crystallinity and stability (quality)” value (stability; new hydrate) was “superior quality” and the stability on storage (stability; stored at 50° C. for an extended period) was “remarkably stable”.
